Test system: Porcine Smooth Muscle Cell
Assay: Effects of compounds on cell proliferation using 3H thymidine incorporation
Assay type: cell-based
Settings: serum/growth factor stimulated cells; for IC50: 24-36 h incubation, read-out: Porcine Smooth Muscle Cell Antiproliferation IC50
Method: Effects of Compounds on Cell Proliferation Using ^3H Thymidine Incorporation
Human and porcine smooth muscle cells were tested in early passage (generally passage 3-7) at sub-confluent conditions. Cultures were grown in 16 mm (24 well) multi-well culture dishes in medium 199 supplemented with 10% fetal bovine serum and 2% antibiotic/antimycotic. At sub-confluence, the cells were placed in a defined serum free medium (AIM-V; Gibco) for 24-48 h prior to initiating the experimental protocol.
Compounds were added to each well at 50 fold dilution (20 μL/well) and the plates were incubated for 24-36 h at 37° C. in 5% CO2. Compounds were initially dissolved in 50% ethanol and serially diluted into media. Compounds were routinely evaluated at concentrations from 1 to 100 μM. As a control, grade II porcine intestinal mucosal heparin (sodium salt) was routinely evaluated in all cell preparations at concentrations from 0.1 to 100 μg/mL.
At the completion of the test procedure, plates were placed on ice, washed three times with ice cold phosphate buffered saline (PBS) and incubated in ice cold 10% trichloroacetic acid (TCA) got 30 min to remove acid soluble proteins. Solution was transferred to scintillation vials containing 0.4 N HCl (500 μL/vial to neutralize NaOH) and each well was rinsed two times with water (500 μL) for a total volume of 2 mL/vial.
Data was obtained, in triplicate, for both control and experimental samples. Control (100%) data was obtained from maximally stimulated cells, as the result of growth factor or serum stimulation. Experimental data was obtained from cells maximally stimulated with growth factor or serum and treated with compound. Data are provided below in Table 1 as an IC50.

CC(=O)OCC1OC(NC(=O)c2ccc(Cl)nc2)C(OC(C)=O)C(OC(C)=O)C1OC1OC(COC(C)=O)C(OC(C)=O)C(OC(C)=O)C1OC(C)=O [Example 1, 6-Chloro-N-(Hepta-O-acetyl-β-D-cellobiosyl)-3-pyridinecarboxamide]
IC50: 3.55 µM

O=C(NC1OC(CO)C(OC2OC3COC(c4ccccc4)OC3C(O)C2O)C(O)C1O)c1ccc(Cl)nc1 [Example 2, N-(4′,6′-O-benzylidene-β-D-cellobiosyl)-6-chloro-nicotinamide]
Porcine Smooth Muscle Cell Antiproliferation (% at 50 μM): 40% at 50 μM

COc1ccc(C(=O)NC2OC(COC(C)=O)C(OC3OC(COC(C)=O)C(OC(C)=O)C(OC(C)=O)C3OC(C)=O)C(OC(C)=O)C2OC(C)=O)c(OC)n1 (centres unmarked) [Example 4]
IC50: 3.11 µM

CC(=O)OCC1OC(NC(=O)c2ccc(F)c(Cl)c2)C(OC(C)=O)C(OC(C)=O)C1OC1OC(COC(C)=O)C(OC(C)=O)C(OC(C)=O)C1OC(C)=O [Example 5, N-(hepta-O-acetyl-β-D-cellobiosyl)-3-chloro-4-fluoro-benzamide]
IC50: 11.7 µM

O=C(NC1OC(CO)C(OC2OC3COC(c4ccccc4)OC3C(O)C2O)C(O)C1O)c1ccc(F)cc1Cl [Example 6, N-(4′,6′-O-benzylidene-β-D-cellobiosyl)-2-chloro-4-flouro-benzamide]
Porcine Smooth Muscle Cell Antiproliferation (% at 50 μM): 5% at 50 μM

Reference: patent US6362170B1, “Benzylglycosylamides as inhibitors of smooth muscle cell proliferation” (American Home Products Corporation, priority 1998, dated 2002)
